Six molecules from ChEMBL document CHEMBL1150977, “A quantitative analysis of kinase inhibitor selectivity” (Nat Biotechnol, 2008) can be followed below.

In experiment [1] the target is Cyclin-dependent kinase 3 (Homo sapiens, UniProt Q00526).
In experiment [2] the target is Mitogen-activated protein kinase 3 (Homo sapiens, UniProt P27361).
In experiment [3] the target is Tyrosine-protein kinase Fyn (Homo sapiens, UniProt P06241).
For experiment [4], the target named is Serine/threonine-protein kinase MRCK beta (Homo sapiens, UniProt Q9Y5S2).
Serine/threonine-protein kinase MRCK beta, sequence (Q9Y5S2 whole entry): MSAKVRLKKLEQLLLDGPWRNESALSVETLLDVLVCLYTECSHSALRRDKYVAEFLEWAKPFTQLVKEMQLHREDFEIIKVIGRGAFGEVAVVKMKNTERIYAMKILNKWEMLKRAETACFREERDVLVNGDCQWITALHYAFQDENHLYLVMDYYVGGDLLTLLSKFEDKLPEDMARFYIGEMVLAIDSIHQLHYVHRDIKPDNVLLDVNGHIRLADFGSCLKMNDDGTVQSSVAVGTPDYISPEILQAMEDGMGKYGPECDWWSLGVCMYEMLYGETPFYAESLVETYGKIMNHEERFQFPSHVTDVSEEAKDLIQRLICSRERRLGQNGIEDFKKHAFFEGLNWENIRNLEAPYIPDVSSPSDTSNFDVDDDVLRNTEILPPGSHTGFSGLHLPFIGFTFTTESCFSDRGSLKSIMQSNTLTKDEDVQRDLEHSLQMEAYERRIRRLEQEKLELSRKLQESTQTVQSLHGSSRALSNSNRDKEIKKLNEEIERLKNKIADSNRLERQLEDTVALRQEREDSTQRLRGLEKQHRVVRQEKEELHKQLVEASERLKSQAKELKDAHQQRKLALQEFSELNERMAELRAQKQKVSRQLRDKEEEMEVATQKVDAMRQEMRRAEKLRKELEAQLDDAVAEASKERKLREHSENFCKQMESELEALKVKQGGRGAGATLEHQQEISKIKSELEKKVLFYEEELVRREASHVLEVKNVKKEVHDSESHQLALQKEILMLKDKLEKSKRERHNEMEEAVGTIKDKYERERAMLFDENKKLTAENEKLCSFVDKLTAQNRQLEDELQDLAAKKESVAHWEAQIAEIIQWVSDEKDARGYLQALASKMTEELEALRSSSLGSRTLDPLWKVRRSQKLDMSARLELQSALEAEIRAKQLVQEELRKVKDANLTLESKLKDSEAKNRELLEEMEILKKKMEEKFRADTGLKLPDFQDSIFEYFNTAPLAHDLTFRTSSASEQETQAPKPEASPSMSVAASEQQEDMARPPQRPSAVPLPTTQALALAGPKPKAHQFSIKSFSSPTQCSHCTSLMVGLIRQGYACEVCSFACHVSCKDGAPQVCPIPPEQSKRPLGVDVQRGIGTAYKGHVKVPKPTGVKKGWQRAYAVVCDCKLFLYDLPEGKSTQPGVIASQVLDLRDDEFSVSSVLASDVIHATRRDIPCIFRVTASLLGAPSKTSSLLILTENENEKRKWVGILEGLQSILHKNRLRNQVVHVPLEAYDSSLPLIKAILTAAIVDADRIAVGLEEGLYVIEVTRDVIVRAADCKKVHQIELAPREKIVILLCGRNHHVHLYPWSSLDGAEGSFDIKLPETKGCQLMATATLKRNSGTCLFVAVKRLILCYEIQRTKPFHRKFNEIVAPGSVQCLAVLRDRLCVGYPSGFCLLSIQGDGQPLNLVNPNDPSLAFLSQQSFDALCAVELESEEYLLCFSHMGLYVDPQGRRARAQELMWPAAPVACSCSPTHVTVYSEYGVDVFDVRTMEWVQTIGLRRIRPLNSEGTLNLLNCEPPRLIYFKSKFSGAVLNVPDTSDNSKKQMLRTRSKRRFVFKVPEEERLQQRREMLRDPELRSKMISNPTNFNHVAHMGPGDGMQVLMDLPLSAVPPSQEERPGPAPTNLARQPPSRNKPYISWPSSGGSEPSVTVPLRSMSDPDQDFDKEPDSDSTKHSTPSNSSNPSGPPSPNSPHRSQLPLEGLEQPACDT
For experiment [5], the target named is Maternal embryonic leucine zipper kinase (Homo sapiens, UniProt Q14680).
Experiment [6] addresses Mitogen-activated protein kinase kinase kinase 10 (Homo sapiens, UniProt Q02779).
The target of experiment [7] is Serine/threonine-protein kinase 26 (Homo sapiens, UniProt Q9P289).
Serine/threonine-protein kinase 26, sequence (Q9P289 whole entry): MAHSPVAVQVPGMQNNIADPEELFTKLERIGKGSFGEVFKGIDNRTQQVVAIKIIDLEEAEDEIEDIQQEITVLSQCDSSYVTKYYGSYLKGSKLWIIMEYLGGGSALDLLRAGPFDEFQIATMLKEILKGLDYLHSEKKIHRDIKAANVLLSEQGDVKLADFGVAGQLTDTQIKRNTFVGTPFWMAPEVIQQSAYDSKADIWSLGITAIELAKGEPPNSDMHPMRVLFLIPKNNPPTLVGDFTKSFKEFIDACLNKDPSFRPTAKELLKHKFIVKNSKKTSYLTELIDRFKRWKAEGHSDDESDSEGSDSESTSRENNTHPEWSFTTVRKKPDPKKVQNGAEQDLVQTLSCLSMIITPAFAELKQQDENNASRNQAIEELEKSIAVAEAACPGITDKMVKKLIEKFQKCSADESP
Experiment [8] addresses Mitogen-activated protein kinase 7 (Homo sapiens, UniProt Q13164).
Experiment [9] deals with T1, Serine/threonine-protein kinase 4 (Homo sapiens, UniProt Q13043).
T1 sequence (Q13043 whole entry): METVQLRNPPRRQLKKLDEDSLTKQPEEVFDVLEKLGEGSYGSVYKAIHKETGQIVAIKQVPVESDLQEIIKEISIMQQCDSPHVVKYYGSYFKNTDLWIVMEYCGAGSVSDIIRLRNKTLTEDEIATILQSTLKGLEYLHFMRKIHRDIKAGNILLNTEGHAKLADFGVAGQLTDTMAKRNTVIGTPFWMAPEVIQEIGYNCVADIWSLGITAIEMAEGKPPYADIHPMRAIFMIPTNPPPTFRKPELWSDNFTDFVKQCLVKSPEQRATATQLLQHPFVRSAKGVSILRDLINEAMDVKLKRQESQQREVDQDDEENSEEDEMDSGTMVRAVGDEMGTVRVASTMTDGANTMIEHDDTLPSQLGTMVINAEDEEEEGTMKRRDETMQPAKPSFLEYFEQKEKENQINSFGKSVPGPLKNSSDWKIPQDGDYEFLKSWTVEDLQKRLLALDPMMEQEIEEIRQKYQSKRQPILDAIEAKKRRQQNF

The target in experiment [10] is T2, Mitogen-activated protein kinase kinase kinase 5 (Homo sapiens, UniProt Q99683).
T2 sequence (Q99683 whole entry): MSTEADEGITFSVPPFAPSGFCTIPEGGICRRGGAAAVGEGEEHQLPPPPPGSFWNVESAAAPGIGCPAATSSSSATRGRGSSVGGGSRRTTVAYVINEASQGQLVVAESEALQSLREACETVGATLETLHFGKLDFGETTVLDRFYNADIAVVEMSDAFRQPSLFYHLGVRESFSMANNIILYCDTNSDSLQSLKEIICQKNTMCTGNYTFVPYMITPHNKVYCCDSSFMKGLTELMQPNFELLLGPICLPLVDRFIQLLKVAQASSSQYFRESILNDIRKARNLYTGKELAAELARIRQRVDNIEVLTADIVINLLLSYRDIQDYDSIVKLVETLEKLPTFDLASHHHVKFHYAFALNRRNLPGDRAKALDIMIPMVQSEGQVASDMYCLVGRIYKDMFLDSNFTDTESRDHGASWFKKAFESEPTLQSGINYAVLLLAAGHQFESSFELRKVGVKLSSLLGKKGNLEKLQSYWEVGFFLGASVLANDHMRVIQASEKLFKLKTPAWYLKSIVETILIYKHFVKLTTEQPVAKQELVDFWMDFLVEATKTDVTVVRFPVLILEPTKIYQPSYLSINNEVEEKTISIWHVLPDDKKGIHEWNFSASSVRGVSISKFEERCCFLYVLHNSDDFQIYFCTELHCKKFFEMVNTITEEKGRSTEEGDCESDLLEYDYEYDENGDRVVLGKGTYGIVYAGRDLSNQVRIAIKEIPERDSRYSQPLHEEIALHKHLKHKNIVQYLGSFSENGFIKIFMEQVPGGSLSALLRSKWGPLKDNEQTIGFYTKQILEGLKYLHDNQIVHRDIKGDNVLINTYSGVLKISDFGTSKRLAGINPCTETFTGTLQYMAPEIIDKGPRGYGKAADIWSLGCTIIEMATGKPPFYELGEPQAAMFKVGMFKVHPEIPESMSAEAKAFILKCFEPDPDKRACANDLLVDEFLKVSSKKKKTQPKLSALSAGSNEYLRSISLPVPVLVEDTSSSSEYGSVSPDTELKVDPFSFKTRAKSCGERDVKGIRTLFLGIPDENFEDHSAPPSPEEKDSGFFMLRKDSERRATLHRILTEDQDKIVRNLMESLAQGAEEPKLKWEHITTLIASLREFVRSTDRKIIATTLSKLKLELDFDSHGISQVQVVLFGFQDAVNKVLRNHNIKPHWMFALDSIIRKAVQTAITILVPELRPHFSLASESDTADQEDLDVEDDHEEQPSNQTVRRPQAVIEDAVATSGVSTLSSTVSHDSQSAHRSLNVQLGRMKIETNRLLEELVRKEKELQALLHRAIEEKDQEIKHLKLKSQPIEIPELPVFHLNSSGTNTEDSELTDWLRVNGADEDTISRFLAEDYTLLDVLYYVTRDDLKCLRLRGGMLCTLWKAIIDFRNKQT

Experiment [11] deals with Cyclin-dependent kinase 5 (Homo sapiens, UniProt Q00535).
Cyclin-dependent kinase 5, sequence (Q00535 whole entry): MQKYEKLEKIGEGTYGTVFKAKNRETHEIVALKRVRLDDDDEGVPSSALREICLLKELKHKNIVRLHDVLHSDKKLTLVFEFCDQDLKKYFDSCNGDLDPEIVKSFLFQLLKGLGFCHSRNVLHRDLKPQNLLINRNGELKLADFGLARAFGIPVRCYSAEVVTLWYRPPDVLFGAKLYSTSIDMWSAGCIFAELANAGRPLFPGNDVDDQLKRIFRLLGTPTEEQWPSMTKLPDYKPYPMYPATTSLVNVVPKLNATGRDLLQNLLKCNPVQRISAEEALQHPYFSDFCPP

What is called Kd is a measure of binding affinity in units of concentration. Lower therefore signals a tighter complex.

Cyclin-dependent kinase 3, sequence (Q00526 whole entry): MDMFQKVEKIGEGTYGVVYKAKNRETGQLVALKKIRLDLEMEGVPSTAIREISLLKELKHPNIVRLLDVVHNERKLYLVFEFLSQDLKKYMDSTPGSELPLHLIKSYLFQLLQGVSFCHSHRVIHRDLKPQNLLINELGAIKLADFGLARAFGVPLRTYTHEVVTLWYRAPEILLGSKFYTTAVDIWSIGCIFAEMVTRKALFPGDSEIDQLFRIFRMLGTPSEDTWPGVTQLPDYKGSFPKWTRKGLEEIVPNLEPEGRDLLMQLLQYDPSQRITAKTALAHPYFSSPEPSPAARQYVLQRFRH
Tyrosine-protein kinase Fyn, sequence (P06241 whole entry): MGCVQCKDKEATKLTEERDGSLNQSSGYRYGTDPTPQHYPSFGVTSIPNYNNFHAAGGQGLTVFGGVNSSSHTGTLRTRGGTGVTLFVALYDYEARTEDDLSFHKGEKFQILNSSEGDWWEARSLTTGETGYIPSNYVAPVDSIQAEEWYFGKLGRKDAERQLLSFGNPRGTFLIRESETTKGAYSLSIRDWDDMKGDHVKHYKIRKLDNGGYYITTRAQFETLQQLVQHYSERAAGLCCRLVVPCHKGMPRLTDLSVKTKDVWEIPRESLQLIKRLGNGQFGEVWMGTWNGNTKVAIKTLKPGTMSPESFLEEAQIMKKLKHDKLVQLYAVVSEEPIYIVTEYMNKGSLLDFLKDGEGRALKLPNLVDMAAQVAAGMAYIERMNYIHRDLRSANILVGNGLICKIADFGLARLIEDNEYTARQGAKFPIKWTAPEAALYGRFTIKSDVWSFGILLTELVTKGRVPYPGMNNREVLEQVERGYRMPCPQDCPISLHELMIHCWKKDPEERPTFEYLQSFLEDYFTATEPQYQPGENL
Mitogen-activated protein kinase 7, sequence (Q13164 whole entry): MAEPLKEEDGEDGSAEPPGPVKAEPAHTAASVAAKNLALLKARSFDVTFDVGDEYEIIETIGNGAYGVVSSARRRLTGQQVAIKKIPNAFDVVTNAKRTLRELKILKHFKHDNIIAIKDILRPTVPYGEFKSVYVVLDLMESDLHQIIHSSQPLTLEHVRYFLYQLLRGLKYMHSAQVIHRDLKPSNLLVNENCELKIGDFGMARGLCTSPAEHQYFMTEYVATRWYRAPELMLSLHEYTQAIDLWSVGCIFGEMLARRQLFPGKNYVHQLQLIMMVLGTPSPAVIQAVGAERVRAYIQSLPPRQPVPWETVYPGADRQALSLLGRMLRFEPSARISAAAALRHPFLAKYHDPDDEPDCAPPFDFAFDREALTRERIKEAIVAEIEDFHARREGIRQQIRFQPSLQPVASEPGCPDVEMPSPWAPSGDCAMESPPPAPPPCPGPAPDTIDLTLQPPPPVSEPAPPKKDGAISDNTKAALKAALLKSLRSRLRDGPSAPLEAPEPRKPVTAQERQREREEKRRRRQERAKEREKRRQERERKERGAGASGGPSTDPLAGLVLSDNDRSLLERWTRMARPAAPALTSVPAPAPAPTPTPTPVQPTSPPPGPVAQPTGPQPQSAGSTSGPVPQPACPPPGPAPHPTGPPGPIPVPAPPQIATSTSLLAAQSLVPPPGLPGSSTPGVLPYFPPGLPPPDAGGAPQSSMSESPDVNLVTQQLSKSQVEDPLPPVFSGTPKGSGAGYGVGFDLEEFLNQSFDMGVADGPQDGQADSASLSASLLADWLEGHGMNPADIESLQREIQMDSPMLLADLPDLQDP
Mitogen-activated protein kinase kinase kinase 10, sequence (Q02779 whole entry): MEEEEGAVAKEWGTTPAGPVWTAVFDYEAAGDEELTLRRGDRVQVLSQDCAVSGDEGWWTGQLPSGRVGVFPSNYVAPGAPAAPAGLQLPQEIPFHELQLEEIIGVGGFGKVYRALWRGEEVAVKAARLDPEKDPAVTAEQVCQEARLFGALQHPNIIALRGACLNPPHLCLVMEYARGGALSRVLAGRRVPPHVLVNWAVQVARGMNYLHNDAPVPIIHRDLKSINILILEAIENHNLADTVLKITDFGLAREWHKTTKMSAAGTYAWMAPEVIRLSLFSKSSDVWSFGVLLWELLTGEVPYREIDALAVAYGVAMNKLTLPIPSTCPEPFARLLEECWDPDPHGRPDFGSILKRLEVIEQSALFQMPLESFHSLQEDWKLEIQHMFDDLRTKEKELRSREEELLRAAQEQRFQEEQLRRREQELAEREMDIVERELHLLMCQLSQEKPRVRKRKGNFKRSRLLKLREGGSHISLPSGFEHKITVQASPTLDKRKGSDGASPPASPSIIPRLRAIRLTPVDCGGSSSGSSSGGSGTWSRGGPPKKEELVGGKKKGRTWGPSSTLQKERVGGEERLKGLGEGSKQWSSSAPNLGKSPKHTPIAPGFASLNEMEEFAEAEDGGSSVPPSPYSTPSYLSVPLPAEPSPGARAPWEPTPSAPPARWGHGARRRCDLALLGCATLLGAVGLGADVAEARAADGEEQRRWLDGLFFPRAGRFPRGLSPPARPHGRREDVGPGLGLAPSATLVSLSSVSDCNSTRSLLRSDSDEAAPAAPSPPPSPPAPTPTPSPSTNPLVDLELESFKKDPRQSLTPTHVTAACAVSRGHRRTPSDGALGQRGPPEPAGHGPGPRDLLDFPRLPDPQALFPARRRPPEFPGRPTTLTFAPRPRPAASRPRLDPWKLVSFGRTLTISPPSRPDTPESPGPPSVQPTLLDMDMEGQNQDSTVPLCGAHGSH

With `Oc1ccc(-c2nc(-c3ccncc3)c(-c3ccc(F)cc3)[nH]2)cc1` [SB-202190], the Kd in experiment [1] was > 10 µM; in [2], > 10 µM; in experiment [3] it was > 10 µM; in experiment [4], 4.2 µM; in experiment [5], > 10 µM; in experiment [6], > 10 µM. Also, the dissociation constant Kd in experiment [7], in experiment [8], in experiment [9], in [10] and in experiment [11] was > 10 µM throughout.
For `CCN1CCN(Cc2ccc(NC(=O)Nc3ccc(Oc4cc(NC)ncn4)cc3)cc2C(F)(F)F)CC1` [AST-487], the dissociation constant Kd in experiment [1] is 0.082 µM; in [9] it was > 10 µM; in experiment [11], 1 µM.
In the case of `COCC(=O)NC/C=C/c1ccc2ncnc(Nc3ccc(Oc4ccc(C)nc4)c(C)c3)c2c1` [CP-724714], the Kd in experiment [1], in experiment [2], in experiment [3], in experiment [4], in experiment [5] and in [6] was > 10 µM throughout. Moreover, the Kd in [7], in experiment [8], in [9], in [10] and in [11] was > 10 µM each time.
Turning to `Nc1nc(Nc2ccc(S(N)(=O)=O)cc2)nn1C(=O)c1c(F)cccc1F` [JNJ-7706621], the dissociation constant Kd in [4] was > 10 µM; in experiment [5] it was > 10 µM; in experiment [9] it was 0.13 µM; in experiment [10] it was > 10 µM.
For the molecule `NC(=O)c1ccc(-c2nc(-c3ccc4c(c3)OCO4)c(-c3ccccn3)[nH]2)cc1` [SB-431542], the dissociation constant (Kd) in experiment [1], in experiment [2], in experiment [3], in experiment [4], in experiment [5] and in experiment [6] was > 10 µM each time. For the same molecule, the equilibrium dissociation constant (Kd) in experiment [7], in experiment [8], in [9], in experiment [10] and in experiment [11] was > 10 µM throughout.
Turning to `CCOc1cc2ncc(C#N)c(Nc3ccc(F)c(Cl)c3)c2cc1NC(=O)/C=C/CN(C)C` [PELITINIB], the Kd in experiment [1], in experiment [2], in experiment [4], in experiment [5], in experiment [6] and in [7] was > 10 µM in each case. For the same molecule, the Kd in experiment [8], in [10] and in experiment [11] was > 10 µM in each case.
